Test system: Klebsiella pneumoniae (ATCC BAA2146 NDM-1+)
Experiment: Neutropenic mouse thigh model of K. pneumoniae infection
Format: in vivo, mouse (CD1)
Conditions: IV 2X daily; for Group Ave. Log 10 cfu/g / Group Average (cfu/g), thigh tissue burden / Log reduction from vehicle: 24 h post infection; for No. Sterilised (5 or less colonies detected on neat plate): n = 12 thighs
Text: Mice used in this study were supplied by Charles River UK and were specific pathogen free. The strain of mouse used was CD1, which is a well characterized outbred strain. Mice were 16-18 g on receipt at Euprotec's facility and were allowed to acclimatize for 7 days (target weight at the start of the experiment 22-25 g).
Klebsiella pneumoniae (ATCC BAA2146 NDM-1^+ (blandm) was used throughout the study.
In this study, 6 mice were used in each treatment group. • b) Immunosuppression
Mice were rendered temporarily neutropenic by immunosuppression with cyclophosphamide at 150 mg/kg four days before infection and 100 mg/kg one day before infection by intraperitoneal injection. The immunosuppression regime leads to neutropenia starting 24 hours post administration which continues throughout the study. • c) Infection
Antibacterial treatment was initiated 2 hours post infection (Table 3) and was administered twice (exactly 12 hours apart). An aliquot of 4% CHD-FA stock solution as adjusted to pH 5 with 10 M sodium hydroxide solution then diluted either 1:2 or 1:8 with 0.9% saline to give a dosing solution of 2% (200 mg/kg) and 0.5% (50 mg/kg) CHD-FA respectively.
Colistin was diluted in 0.9% saline to give a dosing solution of 4 mg/ml (40 mg/kg). Meropenem was diluted in 0.9% saline to give a dosing solution of 3 mg/ml (30 mg/kg). The vehicle was 0.9% saline. Following reconstitution, the suspensions were vortexed to ensure complete dissolution.
CHD-FA was administered by gavage, whereas Colistin, Meropenem and the vehicle were administered IV at 10 ml/kg (requiring individual mice to be administered ˜0.25 ml/dose). • e) Endpoints
24 hours post infection, the clinical condition of all animals was assessed prior to them being humanely euthanized. Animal weight was determined before both thighs were removed and weighed individually. Individual thigh tissue samples were homogenized in ice cold sterile phosphate buffered saline. Thigh homogenates were then quantitatively cultured on to CLED agar and incubated at 37° C. for 24 hrs and colonies counted daily. • f) Statistical Analysis
Quantitative thigh tissue burden data for CHD-FA were analysed using the statistical test Kruskal Wallis test (corrected for multiple comparisons) and compared to Colistin, Meropenem and vehicle monotherapy, plus Colistin/CHD-FA and Meropenem/CHD-FA combinations.

Row | Compound | Group Ave. Log 10 cfu/g (Meropenem 30 mg/kg) | Group Average (cfu/g), thigh tissue burden (Meropenem 30 mg/kg) | Log reduction from vehicle (Meropenem 30 mg/kg) | No. Sterilised (5 or less colonies detected on neat plate) (Meropenem 30 mg/kg) | Group Ave. Log 10 cfu/g (Colistin 40 mg/kg) | Group Average (cfu/g), thigh tissue burden (Colistin 40 mg/kg) | Log reduction from vehicle (Colistin 40 mg/kg) | No. Sterilised (5 or less colonies detected on neat plate) (Colistin 40 mg/kg)
1 | C[C@@H](O)[C@H]1C(=O)N2C(C(=O)O)=C(S[C@@H]3CN[C@H](C(=O)N(C)C)C3)[C@H](C)[C@H]12 [Meropenem] | 9.67 Log 10 cfu/g | 4729505542 cfu/g | 1.74 log 10 | 0 | – | – | – | –
2 | Colistin | – | – | – | – | 9.14 Log 10 cfu/g | 1388363808 cfu/g | 2.27 log 10 | 0

Reference: US9265744B2, “Fulvic acid and antibiotic combination for the inhibition or treatment of multi-drug resistant bacteria” (NATRACINE UK LIMITED, priority 2012, dated 2016)
